The text below walks through data of paper PMC10900488, “Synthesis and Evaluation of (Bis)benzyltetrahydroisoquinoline Alkaloids as Antiparasitic Agents” (JACS Au, 2024).

The term CC50 denotes the concentration giving 50% cytotoxicity. A high value points to better tolerance by the cells.

Data set [1] relates to L. mexicana promastigotes. Kind of data set: Light microscopy of cell morphology. The class given is cell-based, Leishmania (L.) mexicana. The protocol: Preliminary investigations into the mechanism of action for compounds (S)-9a, (S)-9b and (S,R)-11 were carried out using L. mexicana promastigotes. Light microscopy-based techniques were employed to further explore compound activity in a different, related Leishmania species. […] A solvent-only control using 0.1% (v/v) DMSO led to no significant effects. Cell cultures were examined by light microscopy to identify any morphological changes resulting from compound treatment (Figure 2B). […] Cells treated with the BI and BBI compounds develop a changed morphology with a spherical cell body or shortened flagellum. This effect is observed in 25% of the population for compound (S)-9a, to a greater extent (66%) for (S)-9b, and 27% for compound (S,R)-11. An abnormal number and position of Ks and Ns were often observed, with Ks and Ns sometimes less well-defined by Hoechst 33342 staining. […]
If the radar plot falls completely within the pink area, the compounds is predicted to have good oral […]
Figure S1. Bioavailability radars for hit compounds as generated by the SwissADME Webtool.
General Experimental Considerations
MTT was obtained from Molecular Probes® (Invitrogen™). Foetal calf serum (FCS, 10500064), M199 medium (M199 containing Earle’s salts and L-glutamine, 31100019), were purchased from Gibco. Hemin (H9039) was obtained from Sigma Aldrich. The FilterMax F5 Multi-Mode Microplate Reader spectrofluorimeter (Molecular Devices) was used to obtain all absorbance readings.
Microscopy was performed with a widefield fluorescence microscope (Axio Observer A1, Zeiss) using a 63× NA 1.4 Plan-Apochromat oil immersion objective lens and a 120V metal halide fluorescence light source (Zeiss, HXP 120V) with a Hamamatsu ORCA-Flash4.0 camera. Standard fluorescence microscopy was performed with a Green (ThorLabs, MDF-GFP2) and/or Blue (Zeiss, 49) filter cube. […]

Data set [2] in a line: Mammalian toxicity, MTT colorimetric. The class given is cell-based, murine. The conditions noted are these: mouse.

Each structure is given as a SMILES string.

With `COc1cc2c(cc1OC)[C@H](Cc1ccc(Br)cc1)N(C)CC2` [(S)-9a], in data set [1] (50 μM), the “Abnormal morphology (spherical cell body or shortened flagellum), share of population” value (from here on “Abnormal morphology”) turned out to be 25%. Also, the CC50 at 96 h in data set [2] was 42.5 ± 1.5 µM.

On to `COc1cc2c(cc1OC)[C@H](Cc1ccc(OC)c(OCc3ccccc3)c1)N(C)CC2` [(S)-9b], for which the “Abnormal morphology” value in data set [1] (50 μM) was 66%. The same compound gave a CC50 at 96 h in data set [2] of 47.1 ± 11.2 µM.

Take `COc1cc2c(cc1OC)[C@@H](Cc1ccc(Oc3cc(C[C@H]4c5cc(OC)c(OC)cc5CCN4C)ccc3OC)cc1)N(C)CC2` [(S,R)-11, (−)-O,O′-dimethylgrisabine]: the “Abnormal morphology” value in data set [1] (5 μM) was 27%. The same compound showed a CC50 at 96 h in data set [2] of 10.2 ± 1.4 µM.
